From patent US20240199977A1, “COMPOSITIONS COMPRISING A META-(C1-C4 ALKOXY) […]” (The Procter & Gamble Company, priority 2022, published 2024) come the findings set out here.

For orientation: solubility means how much of the substance goes into solution per volume.

A short description of data set [1]: Headspace Method, Air/DPM partition (dynamic headspace GC/MS). To be noted: for Air/DPM partition coef / Headspace: 30° C.; for Headspace: above DPM solution of 1.1E+07 ng/mL. It counts as physicochemical. The procedure: (§1) Perfume headspace data is collected for various materials according to the method provided below.
(§2) The partition coefficients are calculated by determining the amount of PRM in the headspace above a solution with a known concentration using a GC/FID-MS (Agilent 7890 and 5977A MSD) with a thermal desorption unit (Gerstel MPS2) and Dynamic Headspace Sampler (Gerstel DHS). This technique allows for automated headspace collections using the MultiPurposeSampler (MPS). The PRMs of interest are prepared at a known concentration in isopropyl myristate (IPM) or propylene glycol monomethyl ether (DPM), and 1 mL is pipetted in a 20 mL headspace vial.
(§3) DHS Conditions: The sample is tempered in the unit at 30° C. A helium stream at 10 mls/min purges 20 mL of headspace containing the analytes above the sample onto the sorbent tube (TDU) containing 25 mg of TenaxTA 35/60 (Restek cat # 25701).
(§4) TDU conditions: The sorbent tube is desorbed with a program starting at 30° C. solvent vent for 2 min then ramped at 720° C./min to 270 ° C. and held for 8 min. The analytes are refocused on a glass bead liner at -60° C. then desorbed at a rate of 12 ° C./s to 270° C. onto the GC column.
(§5) GC/MS conditions: Agilent 122-5532UI column of 30 m×250 μm×0.25 μm and a flow rate of 1.5 mL/min is utilized. A temperature program of 50° C. to 280° C. with a 2 min hold and a ramp rate of 12° C./min is suitable. Scan or SIM mode MSD parameters with a solvent delay for the DPM are applied to achieve appropriate detection.
(§6) Analytical standards can be obtained from Sigma Aldrich, St. Louis, MO and BioSynth, UK. A stock solution is prepared at approximately 0.5 g/L. The stock solution is then diluted to 4 to 5 concentrations ranging from approximately 0.05 g/L to 0.00005 g/L. These standard solutions are then analyzed by GC/MS. This analysis is performed by using the same TDU desorption and GC/MS conditions described above with a luL liquid injection onto the TDU tube instead of the DHS collection. The amount injected on column and the area responses of the target m/z are utilized to create a calibration plot with a linear fit.
(§7) Quantification of the headspace is performed by the PRM target m/z area response of the perfume component and the linear equation of the calibration plot.
(§8) Perfume headspace data is collected for various materials according to the Headspace 5 Method provided above in the Test Methods section. The Air/Solvent partition coefficients are determined and indexed accordingly (e.g., where the partition coefficient for ethylvanillin is set at 1.00).

A short description of the next data set: physchem. The conditions noted are these: oil or lipid, thermodynamic from solid.
Data set [2] is described as follows: Headspace Method, Air/IPM partition (dynamic headspace GC/MS). It counts as physicochemical. To be noted: for Air/IPM partition coef / Headspace: 30° C.; for Headspace: above IPM solution of about 2.1E+06 ng/mL. The procedure: as §1, §2, §3, §4, §5, §6, §7, §8

Converted amounts (≈) assume the structure as drawn. Like-named read-outs stand apart in the source and are kept apart here.

Regarding `CCOc1cccc(C=O)c1O` [ortho-Ethylvanillin, 2-hydroxy-3-ethoxybenzaldehyde], the “Ethylvanillin Indexed Air/DPM partition coefficient” value in data set [1] stood at 93.7. In data set [1] (average of three replicates), the Air/DPM partition coef is reported as 2.31E−07 ng/mL in air per ng/mL in DPM and the Headspace was found to be 2.4678 ng/mL. Also, the “goes into the headspace more than ethylvanillin” value in data set [1] (out of DPM) is on record as “about 94 X”. The solubility in the data set “physchem” was found to be 73 mg/mL (≈ 439 mM). In addition, the “Ethylvanillin Indexed Air/IPM partition coefficient” value in data set [2] was determined as 6.17. Also, in data set [2] (average of two replicates), the Air/IPM partition coef is listed as 1.21E−07 ng/mL in air per ng/mL in IPM and the Headspace amounted to 0.2521 ng/mL. Besides, the “goes into the headspace more than its structural isomer ethylvanillin” value in data set [2] (out of IPM) is recorded as “about 6.2 X”.
As for `COc1cc(C=O)ccc1O` [Vanillin], the “Ethylvanillin Indexed Air/DPM partition coefficient” value in data set [1] was found to be 4.88. Besides, in data set [1] (average of three replicates), the Air/DPM partition coef is 1.21E−08 ng/mL in air per ng/mL in DPM and the Headspace stood at 0.1288 ng/mL. For the same compound, the “Ethylvanillin Indexed Air/IPM partition coefficient” value in data set [2] came to 1.40. In data set [2] (average of two replicates), the Air/IPM partition coef is 2.73E−08 ng/mL in air per ng/mL in IPM and the Headspace amounted to 0.0563 ng/mL.
For `CCOc1cc(C=O)ccc1O` [Ethylvanillin], in data set [1] (average of three replicates), the Air/DPM partition coef is 2.45E−09 ng/mL in air per ng/mL in DPM and the Headspace came to 0.0262 ng/mL. Further, the “Ethylvanillin Indexed Air/DPM partition coefficient” value in data set [1] (indexed, ethylvanillin set at 1.00, average of three replicates) was 1.00. In addition, the solubility in “physchem” stood at 38 mg/mL (≈ 229 mM). Further, in data set [2] (average of two replicates), the Air/IPM partition coef is 1.95E−08 ng/mL in air per ng/mL in IPM and the Headspace is on record as 0.0402 ng/mL. Also, the “Ethylvanillin Indexed Air/IPM partition coefficient” value in data set [2] (indexed, ethylvanillin set at 1.00, average of two replicates) is 1.00.
